From ChEMBL document CHEMBL3621085, “Tetrazole regioisomers in the development of nitro group-containing antitubercular agents” (Medchemcomm, 2015)
Converted amounts (≈) assume the structure as drawn. The source made the active and inactive calls. No cut-off for these calls is given here.

Columns and labels:
[1] = test system: Mycobacterium tuberculosis; experiment: Antimycobacterial activity against Mycobacterium tuberculosis My 331/88 after 14 days by micromethod; format: functional; conditions: My 331/88, 336 h
[2] = test system: Mycobacterium avium; experiment: Antimycobacterial activity against Mycobacterium avium My 330/88 after 14 days by micromethod; format: functional; conditions: My 330/88, 336 h
[3] = test system: Mycobacterium tuberculosis; experiment: Antimycobacterial activity against Mycobacterium tuberculosis My 331/88 after 21 days by micromethod; format: functional; conditions: My 331/88, 504 h
[4] = test system: Mycobacterium avium; experiment: Antimycobacterial activity against Mycobacterium avium My 330/88 after 21 days by micromethod; format: functional; conditions: My 330/88, 504 h
[5] = test system: Mycobacterium kansasii; experiment: Antimycobacterial activity against Mycobacterium kansasii My 235/80 after 7 days by micromethod; format: functional; conditions: My 235/80, 168 h
[6] = test system: Mycobacterium kansasii; experiment: Antimycobacterial activity against Mycobacterium kansasii My 235/80 after 14 days by micromethod; format: functional; conditions: My 235/80, 336 h
[7] = test system: Mycobacterium kansasii; experiment: Antimycobacterial activity against Mycobacterium kansasii My 235/80 after 21 days by micromethod; format: functional; conditions: My 235/80, 504 h
[8] = test system: Mycobacterium kansasii; experiment: Antimycobacterial activity against Mycobacterium kansasii 6509/96 after 7 days by micromethod; format: functional; conditions: 6509/96, 168 h
[9] = test system: Mycobacterium kansasii; experiment: Antimycobacterial activity against Mycobacterium kansasii 6509/96 after 14 days by micromethod; format: functional; conditions: 6509/96, 336 h
[10] = test system: Mycobacterium kansasii; experiment: Antimycobacterial activity against Mycobacterium kansasii 6509/96 after 21 days by micromethod; format: functional; conditions: 6509/96, 504 h
[11] = test system: Staphylococcus aureus; experiment: Antibacterial activity against Staphylococcus aureus ATCC 6538 after 24 to 48 hrs by broth micro dilution method; format: functional, organism-based
[12] = test system: Staphylococcus aureus; experiment: Antibacterial activity against methicillin-resistant Staphylococcus aureus H 5996/08 after 24 to 48 hrs by broth micro dilution method; format: functional, organism-based
[13] = test system: Staphylococcus epidermidis; experiment: Antibacterial activity against Staphylococcus epidermidis H 6966/08 after 24 to 48 hrs by broth micro dilution method; format: functional, organism-based
[14] = test system: Enterococcus faecalis; experiment: Antibacterial activity against Enterococcus faecalis J 14365/08 after 24 to 48 hrs by broth micro dilution method; format: functional, organism-based
[15] = test system: Escherichia coli; experiment: Antibacterial activity against Escherichia coli ATCC 8739 after 24 to 48 hrs by broth micro dilution method; format: functional, organism-based
[16] = test system: Klebsiella pneumoniae; experiment: Antibacterial activity against Klebsiella pneumoniae D 11750/08 after 24 to 48 hrs by broth micro dilution method; format: functional, organism-based
[17] = test system: Klebsiella pneumoniae; experiment: Antibacterial activity against Klebsiella pneumoniae J 14368/08 after 24 to 48 hrs by broth micro dilution method; format: functional, organism-based
[18] = test system: Klebsiella pneumoniae; experiment: Antibacterial activity against ESBL positive Klebsiella pneumoniae J 14368/08 after 24 to 48 hrs by broth micro dilution method; format: functional, organism-based
[19] = test system: Pseudomonas aeruginosa; experiment: Antibacterial activity against Pseudomonas aeruginosa ATCC 9027 after 24 to 48 hrs by broth micro dilution method; format: functional, organism-based
[20] = test system: Candida albicans; experiment: Antifungal activity against Candida albicans ATCC 44859 after 24 to 48 hrs by broth micro dilution method; format: functional, organism-based
[21] = test system: Candida tropicalis; experiment: Antifungal activity against Candida tropicalis 156 after 24 to 48 hrs by broth micro dilution method; format: functional, organism-based
[22] = test system: Pichia kudriavzevii; experiment: Antifungal activity against Candida krusei E28 after 24 to 48 hrs by broth micro dilution method; format: functional, organism-based
[23] = test system: Nakaseomyces glabratus; experiment: Antifungal activity against Candida glabrata 20/I after 24 to 48 hrs by broth micro dilution method; format: functional, organism-based
[24] = test system: Trichosporon asahii; experiment: Antifungal activity against Trichosporon asahii 1188 after 24 to 48 hrs by broth micro dilution method; format: functional, organism-based
[25] = test system: Aspergillus fumigatus; experiment: Antifungal activity against Aspergillus fumigatus 2318 after 24 to 48 hrs by broth micro dilution method; format: functional, organism-based
[26] = test system: Lichtheimia corymbifera; experiment: Antifungal activity against Absidia corymbifera 272 after 24 to 48 hrs by broth micro dilution method; format: functional, organism-based
[27] = test system: Trichophyton mentagrophytes; experiment: Antifungal activity against Trichophyton mentagrophytes 445 after 72 to 120 hrs by broth micro dilution method; format: functional, organism-based
[28] = Cytotoxicity against CHOK1 cells assessed as viability after 24 hrs by MTT assay; format: cell-based; conditions: Cricetulus griseus, CHO-K1, 24 h
[29] = test system: Salmonella typhimurium; experiment: Mutagenic activity in Salmonella typhimurium TA98 assessed as induction of reverse mutation at 50 uM; format: toxicity, organism-based; conditions: salmonella enterica subsp. enterica serovar typhimurium
[30] = test system: Salmonella typhimurium; experiment: Mutagenic activity in Salmonella typhimurium TA100 assessed as induction of reverse mutation at 50 uM; format: toxicity, organism-based; conditions: salmonella enterica subsp. enterica serovar typhimurium

Structure (SMILES)	MIC [1] [µM]	MIC [2] [µM]	MIC [3] [µM]	MIC [4] [µM]	MIC [5] [µM]	MIC [6] [µM]	MIC [7] [µM]	MIC [8] [µM]	MIC [9] [µM]	MIC [10] [µM]	IC50 [28] [µM]	Activity [29]	Activity [30]	also measured
O=[N+]([O-])c1cc(CSc2nnnn2Cc2ccccc2)cc([N+](=O)[O-])c1	1 (≈ 0.372 µg/mL)	250 (≈ 93.1 µg/mL)	2 (≈ 0.745 µg/mL)	250 (≈ 93.1 µg/mL)	2 (≈ 0.745 µg/mL)	8 (≈ 2.98 µg/mL)	8 (≈ 2.98 µg/mL)	2 (≈ 0.745 µg/mL)	4 (≈ 1.49 µg/mL)	4 (≈ 1.49 µg/mL)	59	Non-toxic	Non-toxic	Activity [11]: inactive; Activity [12]: inactive; Activity [13]: inactive; Activity [14]: inactive; Activity [15]: inactive; Activity [16]: inactive; Activity [17]: inactive; Activity [18]: inactive; Activity [19]: inactive; Activity [20]: inactive; Activity [21]: inactive; Activity [22]: inactive; Activity [23]: inactive; Activity [24]: inactive; Activity [25]: inactive; Activity [26]: inactive; Activity [27]: inactive
O=[N+]([O-])c1cc(CSc2nnn(Cc3ccc(Cl)c(Cl)c3)n2)cc([N+](=O)[O-])c1	1 (≈ 0.441 µg/mL)	125 (≈ 55.2 µg/mL)	1 (≈ 0.441 µg/mL)	125 (≈ 55.2 µg/mL)	8 (≈ 3.53 µg/mL)	16 (≈ 7.06 µg/mL)	32 (≈ 14.1 µg/mL)	16 (≈ 7.06 µg/mL)	32 (≈ 14.1 µg/mL)	32 (≈ 14.1 µg/mL)	150			
O=[N+]([O-])c1cc(Cn2nnc(SCc3ccccc3)n2)cc([N+](=O)[O-])c1	16 (≈ 5.96 µg/mL)	125 (≈ 46.5 µg/mL)	16 (≈ 5.96 µg/mL)	125 (≈ 46.5 µg/mL)	16 (≈ 5.96 µg/mL)	32 (≈ 11.9 µg/mL)	32 (≈ 11.9 µg/mL)	16 (≈ 5.96 µg/mL)	32 (≈ 11.9 µg/mL)	32 (≈ 11.9 µg/mL)	148			
O=[N+]([O-])c1cc(CSc2nnnn2Cc2ccc(Cl)c(Cl)c2)cc([N+](=O)[O-])c1	2 (≈ 0.883 µg/mL)	125 (≈ 55.2 µg/mL)	2 (≈ 0.883 µg/mL)	125 (≈ 55.2 µg/mL)	2 (≈ 0.883 µg/mL)	4 (≈ 1.77 µg/mL)	4 (≈ 1.77 µg/mL)	2 (≈ 0.883 µg/mL)	4 (≈ 1.77 µg/mL)	8 (≈ 3.53 µg/mL)	140			
O=[N+]([O-])c1cc(Cn2nnc([Se]Cc3ccccc3)n2)cc([N+](=O)[O-])c1	8 (≈ 3.35 µg/mL)	16 (≈ 6.71 µg/mL)	8 (≈ 3.35 µg/mL)	16 (≈ 6.71 µg/mL)	8 (≈ 3.35 µg/mL)	16 (≈ 6.71 µg/mL)	32 (≈ 13.4 µg/mL)	16 (≈ 6.71 µg/mL)	32 (≈ 13.4 µg/mL)	32 (≈ 13.4 µg/mL)	118			
O=[N+]([O-])c1cc(Cn2nnnc2SCc2ccccc2)cc([N+](=O)[O-])c1	8 (≈ 2.98 µg/mL)	125 (≈ 46.5 µg/mL)	8 (≈ 2.98 µg/mL)	125 (≈ 46.5 µg/mL)	32 (≈ 11.9 µg/mL)	62 (≈ 23.1 µg/mL)	62 (≈ 23.1 µg/mL)	16 (≈ 5.96 µg/mL)	32 (≈ 11.9 µg/mL)	32 (≈ 11.9 µg/mL)	115			
O=[N+]([O-])c1cc(Cn2nnnc2[Se]Cc2ccccc2)cc([N+](=O)[O-])c1	8 (≈ 3.35 µg/mL)	32 (≈ 13.4 µg/mL)	8 (≈ 3.35 µg/mL)	32 (≈ 13.4 µg/mL)	8 (≈ 3.35 µg/mL)	16 (≈ 6.71 µg/mL)	32 (≈ 13.4 µg/mL)	16 (≈ 6.71 µg/mL)	32 (≈ 13.4 µg/mL)	32 (≈ 13.4 µg/mL)	85			
O=[N+]([O-])c1cc(CSc2nnn(Cc3ccccc3)n2)cc([N+](=O)[O-])c1	1 (≈ 0.372 µg/mL)	62 (≈ 23.1 µg/mL)	1 (≈ 0.372 µg/mL)	125 (≈ 46.5 µg/mL)	8 (≈ 2.98 µg/mL)	16 (≈ 5.96 µg/mL)	16 (≈ 5.96 µg/mL)	4 (≈ 1.49 µg/mL)	4 (≈ 1.49 µg/mL)	8 (≈ 2.98 µg/mL)	41	Toxic	Toxic	Activity [11]: inactive; Activity [12]: inactive; Activity [13]: inactive; Activity [14]: inactive; Activity [15]: inactive; Activity [16]: inactive; Activity [17]: inactive; Activity [18]: inactive; Activity [19]: inactive; Activity [20]: inactive; Activity [21]: inactive; Activity [22]: inactive; Activity [23]: inactive; Activity [24]: inactive; Activity [25]: inactive; Activity [26]: inactive; Activity [27]: inactive
O=[N+]([O-])c1ccc(C[Se]c2nnn(Cc3ccccc3)n2)c([N+](=O)[O-])c1	16 (≈ 6.71 µg/mL)	62 (≈ 26 µg/mL)	16 (≈ 6.71 µg/mL)	62 (≈ 26 µg/mL)	16 (≈ 6.71 µg/mL)	16 (≈ 6.71 µg/mL)	32 (≈ 13.4 µg/mL)	32 (≈ 13.4 µg/mL)	32 (≈ 13.4 µg/mL)	62 (≈ 26 µg/mL)	22			
O=[N+]([O-])c1cc(CSc2nnnn2Cc2ccc(Cl)cc2)cc([N+](=O)[O-])c1	2 (≈ 0.814 µg/mL)	125 (≈ 50.9 µg/mL)	4 (≈ 1.63 µg/mL)	125 (≈ 50.9 µg/mL)	2 (≈ 0.814 µg/mL)	2 (≈ 0.814 µg/mL)	4 (≈ 1.63 µg/mL)	4 (≈ 1.63 µg/mL)	8 (≈ 3.25 µg/mL)	8 (≈ 3.25 µg/mL)	94	Toxic	Toxic	
O=[N+]([O-])c1cc(CSc2nnn(Cc3ccc(Cl)cc3)n2)cc([N+](=O)[O-])c1	1 (≈ 0.407 µg/mL)	16 (≈ 6.51 µg/mL)	2 (≈ 0.814 µg/mL)	16 (≈ 6.51 µg/mL)	4 (≈ 1.63 µg/mL)	8 (≈ 3.25 µg/mL)	16 (≈ 6.51 µg/mL)	16 (≈ 6.51 µg/mL)	16 (≈ 6.51 µg/mL)	32 (≈ 13 µg/mL)	301	Toxic	Toxic	
O=[N+]([O-])c1ccc(C[Se]c2nnnn2Cc2ccccc2)c([N+](=O)[O-])c1	8 (≈ 3.35 µg/mL)	250 (≈ 105 µg/mL)	16 (≈ 6.71 µg/mL)	250 (≈ 105 µg/mL)	16 (≈ 6.71 µg/mL)	32 (≈ 13.4 µg/mL)	125 (≈ 52.4 µg/mL)	16 (≈ 6.71 µg/mL)	62 (≈ 26 µg/mL)	125 (≈ 52.4 µg/mL)	8.5			
